Results: US9926304B2, “1-(arylmethyl)quinazoline-2,4(1H,3H)-diones as PARP inhibitors and the use thereof” (Impact Therapeutics, Inc., priority 2011, dated 2018)
Where two headings read alike, the source gives them in different places.

Tests used:
[1] = system: Human breast cancer cell line T47D; test: Cell based caspase-3 activity assay: potentiation of MMS induced apoptosis; conditions: read-out: EC50 (nM), potentiation of the apoptosis inducing activity of MMS
Outline: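 T47D cells were exposed for 24 h to compound plus a minimally apoptotic MMS dose (medium containing 11.1 μg/ml MMS). Lysates were incubated 3 h at 37 °C with (Ac-DEVD)2-R110 caspase-3 substrate (20 μM in added buffer) and read at ex 496/em 520 nm. EC50 came from a sigmoidal fit of RFU versus log concentration.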

[2] = system: advanced breast cancer; conditions: Phase II clinical trial; cited from earlier work
[3] = system: SW620 human colorectal cancer cells; test: MTT based cell viability assay: potentiation of the growth inhibiting activity of MMS
[4] = system: BRCA-2 deficient CAPAN-1 human pancreatic cancer cells; test: MTT based cell viability assay: growth inhibition of BRCA-2 deficient CAPAN-1 cells; conditions: 240 h, compound alone, 10 day assay
[5] = biological target: T1, PARP-1 enzyme (Homo sapiens, UniProt P09874); test: PARP-1 enzymatic activity assay (Trevigen 96-well kit 4676-096-K); type: biochemical; conditions: 0.5 unit PARP-1, histone pre-coated plate, 60 min at room temperature; read-out: IC50 (nM), inhibitory effect on PARP-1 enzymatic activity
T1 construct: purchased Trevigen, Inc. 4676-096-K
Text: Measurement of the inhibitory effect of 1-(3-(4-(pyrimidin-2-yl)piperazine-1-carbonyl)benzyl)quinazoline-2,4(1H,3H)-dione and analogs on PARP-1 enzymatic activity
Briefly, PARP-1 catalyzes the NAD-dependent addition of poly(ADP-ribose) to its nuclear protein substrates such as histones. The assay kit measures the incorporation of biotynylated poly(ADP-ribose) onto histone proteins in a 96-well format.

[6] = Homo sapiens, T47D, 24 h, T47D cells, 11.1 μg/ml MMS, 24 hours, intracellular caspase-3 activity
[7] = Homo sapiens, SW-620, 120 h, read-out: IC50 (nM), potentiation of the growth inhibiting activity of MMS, SW620 cells, 1.7 μg/ml MMS, 5 days (120 hours), MTT
[8] = read-out: IC50 (nM), potentiation of the growth inhibiting activity of MMS, SW620 cells, 1.7 μg/ml MMS, 5 days (120 hours), MTT

T1 sequence (P09874 whole entry): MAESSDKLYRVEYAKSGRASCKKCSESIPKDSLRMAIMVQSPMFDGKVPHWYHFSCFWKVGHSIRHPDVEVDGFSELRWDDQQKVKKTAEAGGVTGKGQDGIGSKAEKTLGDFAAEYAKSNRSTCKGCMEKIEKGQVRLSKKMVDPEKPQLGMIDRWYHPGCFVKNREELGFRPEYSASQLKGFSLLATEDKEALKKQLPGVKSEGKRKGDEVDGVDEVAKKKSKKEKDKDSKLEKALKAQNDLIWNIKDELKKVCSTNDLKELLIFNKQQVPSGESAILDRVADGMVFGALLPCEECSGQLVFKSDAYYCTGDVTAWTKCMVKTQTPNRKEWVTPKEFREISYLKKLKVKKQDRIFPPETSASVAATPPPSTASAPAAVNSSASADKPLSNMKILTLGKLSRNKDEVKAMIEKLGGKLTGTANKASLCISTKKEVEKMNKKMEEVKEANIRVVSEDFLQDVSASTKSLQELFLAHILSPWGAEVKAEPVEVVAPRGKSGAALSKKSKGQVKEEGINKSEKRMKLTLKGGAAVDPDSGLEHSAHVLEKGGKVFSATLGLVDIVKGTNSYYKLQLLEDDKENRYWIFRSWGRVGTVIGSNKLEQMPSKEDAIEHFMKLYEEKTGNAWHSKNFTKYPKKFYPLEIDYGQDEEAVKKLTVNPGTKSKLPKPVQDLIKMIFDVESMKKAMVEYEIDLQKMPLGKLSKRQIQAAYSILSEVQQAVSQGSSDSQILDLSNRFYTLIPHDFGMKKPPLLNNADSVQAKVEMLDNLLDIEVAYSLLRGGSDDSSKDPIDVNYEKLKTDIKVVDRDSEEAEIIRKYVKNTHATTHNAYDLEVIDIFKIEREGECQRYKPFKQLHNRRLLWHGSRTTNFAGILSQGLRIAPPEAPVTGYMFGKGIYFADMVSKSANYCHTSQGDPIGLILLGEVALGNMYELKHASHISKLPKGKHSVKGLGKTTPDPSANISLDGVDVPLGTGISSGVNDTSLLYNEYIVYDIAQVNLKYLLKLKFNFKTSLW

Row | EC50 ([1]; Homo sapiens, T47D, 24 h) [nM] | IC50 ([3]; Homo sapiens, SW-620, 120 h, read-out: IC50 (nM), potentiation of the growth inhibiting activity of MMS) [nM] | IC50 [4] [nM] | IC50 [5] [nM] | EC50 [1, 6] [nM] | IC50 [3, 7] [nM] | EC50 ([1]; T47D cells, 11.1 μg/ml MMS, 24 hours, intracellular caspase-3 activity) [nM] | IC50 [3, 8] [nM] | Compound | efficacy in treatment of advanced breast cancer [2]
1 | 24 | 28 | – | – | – | – | – | – | O=C(c1cc(Cc2n[nH]c(=O)c3ccccc23)ccc1F)N1CCN(C(=O)C2CC2)CC1 [AZD2281, olaparib, reference compound] | effective
2 | – | – | 445 | 4.2 | 56 | 90 | – | – | O=C(c1cccc(Cn2c(=O)[nH]c(=O)c3ccccc32)c1)N1CCN(c2ccccn2)CC1 [Example 3, 1-(3-(4-(Pyridin-2-yl)piperazine-1-carbonyl)benzyl)quinazoline-2,4(1H,3H)-dione] | –
3 | – | – | 55 | 0.96 | – | – | 12 | 12 | O=C(c1cccc(Cn2c(=O)[nH]c(=O)c3ccccc32)c1)N1CCN(c2ncccn2)CC1 [Example 4, 1-(3-(4-(Pyrimidin-2-yl)piperazine-1-carbonyl)benzyl)quinazoline-2,4(1H,3H)-dione] | –
4 | – | – | 2360 | 5.3 | 120 | 112 | – | – | O=C(c1ccccc1)N1CCN(C(=O)c2cccc(Cn3c(=O)[nH]c(=O)c4ccccc43)c2)CC1 [Example 8, 1-(3-(4-Benzoylpiperazine-1-carbonyl)benzyl)quinazoline-2,4(1H,3H)-dione] | –
5 | – | – | 98 | 0.21 | 3.9 | – | – | 9.8 | O=C(c1cc(Cn2c(=O)[nH]c(=O)c3ccccc32)ccc1F)N1CCN(c2ncccn2)CC1 [Example 25, 1-(4-Fluoro-3-(4-(pyrimidin-2-yl)piperazine-1-carbonyl)benzyl)quinazoline-2,4(1H,3H)-dione] | –
6 | – | – | 318 | 0.88 | 5.7 | 6.8 | – | – | O=C(c1cc(Cn2c(=O)[nH]c(=O)c3ccccc32)ccc1F)N1CCN(C(=O)C2CCC2)CC1 [Example 44, 1-(3-(4-(Cyclobutylcarbonyl)piperazine-1-carbonyl)-4-fluorobenzyl)quinazoline-2,4(1H,3H)-dione] | –
7 | – | – | 44 | 0.37 | 4.1 | 13 | – | – | O=C(c1cccc(Cn2c(=O)[nH]c(=O)c3c(F)cccc32)c1)N1CCN(c2ncccn2)CC1 [Example 127, 5-Fluoro-1-(3-(4-(pyrimidin-2-yl)piperazine-1-carbonyl)benzyl)quinazoline-2,4(1H,3H)-dione] | –
8 | – | – | 17 | 1.19 | 0.93 | 4.1 | – | – | O=C(c1cc(Cn2c(=O)[nH]c(=O)c3c(F)cccc32)ccc1F)N1CCN(c2ncccn2)CC1 [Example 132, 5-Fluoro-1-(4-fluoro-3-(4-(pyrimidin-2-yl)piperazine-1-carbonyl)benzyl)quinazoline-2,4(1H,3H)-dione] | –
9 | – | – | 36 | 1.3 | 4 | 16 | – | – | O=C(c1cccc(Cn2c(=O)[nH]c(=O)c3cc(F)ccc32)c1)N1CCN(c2ncccn2)CC1 [Example 139, 6-Fluoro-1-(3-(4-(pyrimidin-2-yl)piperazine-1-carbonyl)benzyl)quinazoline-2,4(1H,3H)-dione] | –
10 | – | – | 78 | 1.15 | 3.4 | 2.8 | – | – | O=C(c1cc(Cn2c(=O)[nH]c(=O)c3cc(F)ccc32)ccc1F)N1CCN(c2ncccn2)CC1 [Example 144, 6-Fluoro-1-(4-fluoro-3-(4-(pyrimidin-2-yl)piperazine-1-carbonyl)benzyl)quinazoline-2,4(1H,3H)-dione] | –
11 | – | – | 47 | 1.2 | 3.4 | 2.7 | – | – | O=C(c1cc(Cn2c(=O)[nH]c(=O)c3cc(F)ccc32)ccc1F)N1CCN(C(=O)C2CCCCC2)CC1 [Example 147, 1-(3-(4-(Cyclohexylcarbonyl)piperazine-1-carbonyl)-4-fluorobenzyl)-6-fluoroquinazoline-2,4(1H,3H)-dione] | –
